Source: patent US8129184B2, “Cancer stem cell antigen vaccines and methods” (Cedars-Sinai Medical Center, priority 2006, dated 2012)
“Also recorded” adds a separate entry of the source.

How the values were obtained:
[1] = test system: CD133 positive cells isolated from No. 66; assay: WST-1 Cell Proliferation Assay, drug sensitivity of CD133 positive vs CD133 negative cells, No. 66; type: cell-based, human; settings: No. 66, 48 hours, 10% FBS/F-12/DMEM
Protocol: FIGS. 10A-10D are line graphs depicting drug sensitivity of CD133 positive cancer stem cells derived from patient No. 66. Tumor cells of No. 66 were cultured in FBS/F-12/DMEM medium for 4 passages. Both CD133 positive and negative tumor cells were collected by FACS sorting. 1×10^4 cells/well were plated in 96-well plate and treated with the indicated concentrations of VP-16, Taxol, temozolomide, and carboplatin for 48 hours in FBS/F-12/DMEM medium. * indicates p<0.05 compared to autologous CD133 negative cells. Data are representative of two independent experiments. (10A) VP16; (10B) Taxol; (10C) temozolomide; (10D) carboplatin.
(§1) To determine whether CD133 positive cancer stem cells were resistant to chemotherapeutic agents, the WST-1 Cell Proliferation Assay was used to examine the drug sensitivity of CD133 positive cells and CD133 negative cells (both collected by FACS sorting from the three glioblastoma patients' primary cultured tumor cells as described above). CD133 positive and negative cells were exposed to conventional chemotherapeutic agents, temozolomide, carboplatin, VP-16 or taxol at various concentrations, for up to 48 hours in 10% FBS/F-12/DMEM culture medium. Temozolomide was supplied by the Schering-Plough Research Institute (Kenilworth, N.J.) and was dissolved in DMSO (Sigma Chemical Co., St Louis, Mo.) at 100 mM stock solution. Carboplatin, etoposide (VP-16) and paclitaxel (Taxol) were obtained from Sigma-Aldrich (St. Louis, Mo.).

[2] = test system: CD133 positive cells isolated from No. 377; assay: WST-1 Cell Proliferation Assay, drug sensitivity of CD133 positive vs CD133 negative cells, No. 377; type: cell-based, human; settings: 48 hours
Protocol: (§2) FIGS. 11A-11C are a set of line graphs depicting drug sensitivity of CD133 positive cancer stem cells derived from patient Nos. 377 and 1049. Tumor cells of patient No. 377 and No. 1049 were cultured in FBS/F-12/DMEM medium for 3 passages. Both CD133 positive and negative tumor cells were collected by FACS sorting. 1×10^4 cells/well were plated in 96-well plate and treated with the indicated concentrations of carboplatin (11A and 11C) or VP-16 (11B) for 48 hours in FBS/F-12/DMAEM medium. * indicates p<0.05 compared to autologous CD133 negative cells. Data are representative of two independent experiments.
as §1, with “Carboplatin, etoposide (VP-16) and paclitaxel (Taxol) were obtained from Sigma-Aldrich (St. Louis, Mo.).” left out

[3] = test system: CD133 positive cells isolated from No. 1049; assay: WST-1 Cell Proliferation Assay, drug sensitivity of CD133 positive vs CD133 negative cells, No. 1049; type: cell-based, human; settings: No. 1049, at 200 μM, 48 hours
Protocol: as §2
as §1, with “Carboplatin, etoposide (VP-16) and paclitaxel (Taxol) were obtained from Sigma-Aldrich (St. Louis, Mo.).” left out

[4] = test system: 9L sphere and monolayer cells; assay: WST-1 viability of 9L neurospheres and monolayer cells exposed to chemotherapeutic agents; type: cell-based, rat; settings: 125-1,000 μM, 2 days
Protocol: To compare the differential proliferation rates and resistance to chemotherapeutic agents, 2,000 healthy 9L sphere and monolayer cells were exposed to either Dulbecco's modified Eagle's medium/F-12 medium containing 10% fetal bovine serum (FBS), or […] stock solution of Temozolamide or Carboplatin dissolved in PBS at concentrations of 1,000 μM, 500 μM, 250 μM, and 125 μM for 2 days. The viability of the cells was scored by measurement of the absorption of formazan dye (the amount of formazan dye formed directly correlates to the number of metabolically active cells) using the cellular proliferation assay WST-1 (Roche Molecular Biochemicals, Mannheim, Germany). Formazan was measured with the use of a microplate reader (Tecan) and spectrophotometer set at a wavelength of 440 nm and a reference wavelength of 890 nm. Cellular viability was determined by exposing cells to WST-1 for 4 hours, and calculating the percentage of viable cells. Proliferation was also assessed by using manual cell counting after 7 days in culture, with an initial cellular concentration of 100,000 cells/mL in a […] flask.

| SMILES | drug resistance of CD133 positive cells compared to autologous CD133 negative cells [1] | resistance of CD133 positive cells compared to autologous CD133 negative cells ([2]; No. 377, at 200 μM) | resistance of CD133 positive cells compared to autologous CD133 negative cells [3] | resistance of neurospheres to the agent compared to monolayer cells [4] | resistance of CD133 positive cells compared to autologous CD133 negative cells ([2]; No. 377, all concentrations tested) |
| --- | --- | --- | --- | --- | --- |
| CC(=O)O[C@H]1C(=O)[C@@]2(C)[C@H]([C@H](OC(=O)c3ccccc3)[C@]3(O)C[C@H](OC(=O)[C@H](O)[C@@H](NC(=O)c4ccccc4)c4ccccc4)C(C)=C1C3(C)C)[C@]1(OC(C)=O)CO[C@@H]1C[C@@H]2O [Taxol, paclitaxel] | dramatic drug resistance | – | – | – | – |
| COc1cc([C@@H]2c3cc4c(cc3[C@@H](O[C@@H]3O[C@@H]5CO[C@@H](C)O[C@H]5[C@H](O)[C@H]3O)[C@H]3COC(=O)[C@H]23)OCO4)cc(OC)c1O [VP-16, etoposide] | dramatic drug resistance | significant resistance | – | – | – |
| N.N.O=C([O-])C1(C(=O)[O-])CCC1.[Pt+2] [carboplatin] | dramatic drug resistance | – | significant resistance | significantly (P<0.05) greater resistance; also recorded: significantly more resistant | significant resistance |
